According to patent publication US20060121117A1, “Anti-angiogenic compositions and methods of use” (ANGIOTECH PHARMACEUTICALS, INC., priority 1993, published 2006):
Blank lines part the entries; values can stand above or below the compound they belong to.

How the values were obtained:
[1] = MTX release from PCL paste; format: physicochemical; conditions: high MePEG concentrations (20% MePEG in PCL)
Experimental: A known weight of a polymer (typically a 2.5 mg pellet) is added to a 15 ml test tube containing 14 ml of a buffer containing 10 mm Na2HPO4—NaH2PO4, 0.145 m NaCl and 0.4 g/l bovine serum albumin. The tubes are capped and tumbled at 37° C. At specific times all the 14 ml of the liquid buffer are removed and replaced with fresh liquid buffer.
For MTX the collected buffer is applied directly to the HPLC column with no need for extraction in methylene chloride. MTX is analyzed at 302 nm. For Vanadium containing compounds the liquid buffer is analyzed directly using a UV/VIS spectrometer in the 200 to 300 nm range.
Methotrexate (“MTX”; Sigma Chemical Co.) is ground in a pestle and mortar to reduce the particle size to below 5 microns. It is then mixed as a dry powder with polycaprolactone (molecular wt 18000 Birmingham Polymers, Alabama USA). The mixture is heated to 65° C. for 5 minutes and the molten polymer/methotrexate mixture is stirred into a smooth paste for 5 minutes. The molten paste is then taken into a 1 mL syringe, and extruded as desired.

[2] = Release from 50:50 ELVAX:poly-l-lactic acid microspheres; format: physicochemical; conditions: 18 hours of tumbling at 37° C.
Experimental: Microspheres are then prepared in a dissolution machine (Six-spindle dissolution tester, VanderKanp, Van Kell Industries Inc., U.S.A.) in triplicate at 200 rpm, 42° C., for 3 hours. Microspheres so prepared are washed twice in water and sized on the microscope.

neutrophils [3] = test: Neutrophil chemiluminescence assay; format: cell-based; conditions: Homo sapiens, paclitaxel at 28 μM, read-out: inhibition of the peak chemiluminescence response
Experimental: (§1) Opsonization of crystals or zymosan was done with 50% heparinized plasma at a concentration of 75 mg of CPPD or 12 mg of zymosan per ml of 50% plasma. Crystals or zymosan were incubated with plasma for 30 min. at 37° C. and then washed in excess HBSS.
All chemiluminescence studies were performed at a cell concentration of 5,000,000 cells/ml in HBSS with CPPD (50 mg/ml). In all experiments 0.5 ml of cells was added to 25 mg of CPPD or 0.5 mg of zymosan in 1.5 ml capped Eppendorf tubes. 10 μl of luminol dissolved in 25% DMSO in HBSS was added to a final concentration of 1 μM and the samples were mixed to initiate neutrophil activation by the crystals or zymosan. Chemiluminescence was monitored using an LKB Luminometer (Model 1250.) at 37° C. with shaking immediately prior to measurements to resuspend the crystals or zymosan. Control tubes contained cells, drug and luminol (crystals absent).

neutrophils [4] = test: Neutrophil superoxide anion generation; format: cell-based, human; conditions: paclitaxel at 28 μM
Experimental: as §1
Superoxide anion concentrations were measured using the superoxide dismutase inhibitable reduction of cytochrome c assay. Briefly, 25 mg of crystals or 0.5 mg of zymosan was placed in a 1.5 ml capped Eppendorf tube and warmed to 37° C. 0.5 ml of cells at 370 C were added together with ferricytochrome c (final concentration 1.2 mg/ml) and the cells were activated by shaking the capped tubes. […] Control tubes were set up under the same conditions with the inclusion of superoxide dismutase at 600 units per ml.

synoviocytes = test: 3H-thymidine incorporation into synoviocytes; format: cell-based; conditions: 6 or 24 hours incubation
Experimental: At these times, 1×10^−6 cpm of ^3H-thymidine was added to the cell culture and incubated for 2 hours at 37° C. The cells were placed through a cell harvester, washed through a filter, the filters were cut, and the amount of radiation contained in the filter sections determined. Once the amount of thymidine incorporated into the cells was ascertained, it was used to determine the rate of cell proliferation. This experiment was repeated three times and the data collated together.

c-fos mRNA = test: c-fos expression in chondrocytes (Northern blot); format: cell-based, bovine; conditions: 10^−6 M, 10^−7 M and 10^−8 M for 2 hours, then TNF 30 ng/ml for 1 hour
Experimental: Total RNA from bovine articular chondrocytes was isolated by the acidified guanidine isothiocyanate method and the levels of c-fos mRNA determined by Northern blot analysis. Denatured RNA samples (12 μg) were analyzed by gel electrophoresis in a denaturing 1% agarose gel, transferred to a nylon membrane (Bio-Rad), cross-linked with an ultraviolet cross-linker (Stratagene UV stratalinker 1800), and hybridized with ^32P-labeled rat c-fos DNA. mRNA for tubulin and total RNA were used as controls. To determine tubulin mRNA, the blots described above were subsequently stripped of DNA and re-probed with ^32P-labeled rat P-tubulin cDNA. This experimented was conducted three times and the data collated.

collagenase mRNA = test: IL-1 induced collagenase expression in chondrocytes (Northern blot); format: cell-based, bovine; conditions: 10^−6 M, 2 hours prior to IL-1 (20 ng/ml), further 16 hours
Experimental: The cells were then incubated for a further 16 hours. Total RNA from bovine articular chondrocytes was isolated by the acidified guanidine isothiocyanate method and the collagenase mRNA determined by Northern blot analysis. The RNA samples were prepared as described above using ^32P-labeled rat collagenase cDNA.

normal chondrocytes = test: Chondrocyte viability (Trypan blue counting); format: cell-based; conditions: up to 10^−5 M, 72 hours
neutrophils [5] = test: Neutrophil viability (LDH release); conditions: paclitaxel at 46 μM for one hour at 37° C.
Experimental: Neutrophils were prepared from freshly collected human citrated whole blood. Briefly, 400 ml of blood were mixed with 80 ml of 4% dextran T500 (Phamacia LKB, Biotechnology AB Uppsala, Sweden) in HBSS and allowed to settle for 1 h. Plasma was collected continuously and 5 ml applied to 5 ml of Ficoll Paque (Pharmacia) in 15 ml polypropylene tubes (Corning, N.Y.). Following centrifugation at 500×g for 30 min, the neutrophil pellets were washed free of erythrocytes by 20 s of hypotonic shock. Neutrophils were resuspended in HBSS, kept on ice and used for experiments within 3 h. Neutrophil viability and purity was always greater than 90%.
Cells were incubated for 20 minutes at 33° C. then for 10 minutes at 37° C. before addition to crystals or zymosan.
Control tubes containing cells with drug (crystals absent) from degranulation experiments were also assayed for LDH.

synovial fibroblasts = test: Synoviocyte proliferation (Trypan blue counting); conditions: 24 hours
neutrophils [6] = test: Neutrophil degranulation assay (myeloperoxidase, lysozyme)
[7] = tested on: chick chorioallantoic membrane (CAM); test: Chick chorioallantoic membrane (CAM) assay, agent in methylcellulose disks; conditions: for Embryos Evaluated positive/total: 48 hours
[8] = Vanadyl sulfate release from PCL paste; format: physicochemical
Experimental: Drug release was determined essentially as described above in Example 33, except that a 65 mg pellet of a 10% w/w VOSO4:PCL was suspended in 10 ml of water and the supernatant analyzed for released Vanadyl Sulphate using UV/Vis absorbance spectroscopy of the peak in the 200 to 300 nm range.

- amount of MTX released from the polymer [1]: substantial amounts
SMILES: CN(Cc1cnc2nc(N)nc(N)c2n1)c1ccc(C(=O)N[C@@H](CCC(=O)O)C(=O)O)cc1 [MTX, Methotrexate]

SMILES: CC(=O)O[C@H]1C(=O)[C@@]2(C)[C@H]([C@H](OC(=O)c3ccccc3)[C@]3(O)C[C@H](OC(=O)[C@H](O)[C@@H](NC(=O)c4ccccc4)c4ccccc4)C(C)=C1C3(C)C)[C@]1(OC(C)=O)CO[C@@H]1C[C@@H]2O [Paclitaxel]
- % of the total drug released from the microspheres (fluorescence assay) [2]: 6%
- % of the total drug released from the microspheres (uv/vis assay) [2]: 10.3%
- inhibition at 28 µM (neutrophils [3]; plasma opsonised zymosan): 45%
- inhibition at 28 µM (neutrophils [3]; plasma opsonized CPPD): 52%
- effect on superoxide anion production (neutrophils [4]; opsonised zymosan): less dramatic than the inhibition of CPPD activation but was significant at all times
- effect on superoxide anion production (neutrophils [4]; plasma opsonised CPPD crystals): decrease in the amount of superoxide generated at all times
- lowest concentration inhibiting incorporation of 3H-thymidine (synoviocytes): 10^−8 M
- effect on c-fos expression (c-fos mRNA): does not alter c-fos expression
- effect on IL-1 induced collagenase expression (collagenase mRNA): completely inhibited
- effect on viability of normal chondrocytes (normal chondrocytes): does not affect the viability
- LDH release (neutrophils [5]): less than 5 % of total
- toxicity to synovial fibroblasts in vitro (synovial fibroblasts; 10^−6 M and 10^−5 M): toxic
- lowest concentration inhibiting proliferation of the synoviocytes (synovial fibroblasts): 10^−7 M
- inhibition at 28 µM (neutrophils [6]; Homo sapiens, Neutrophil, […], read-out: inhibition of MPO release): 50%
- effect on lysozyme release (neutrophils [6]; paclitaxel at 28 μM, plasma opsonized CPPD): reduced lysozyme release
- effect on myeloperoxidase release (neutrophils [6]; plasma opsonized CPPD, paclitaxel 28 μM (FIG. 32A)): significantly inhibited
- Embryos Evaluated positive/total ([7]; 0.25 μg paclitaxel in methylcellulose disk): 2/11
- Embryos Evaluated positive/total ([7]; 0.5 μg paclitaxel in methylcellulose disk): 6/11
- Embryos Evaluated positive/total ([7]; 1 μg paclitaxel in methylcellulose disk): 6/15
- Embryos Evaluated positive/total ([7]; 5 μg paclitaxel in methylcellulose disk): 20/27
- Embryos Evaluated positive/total ([7]; 10 μg paclitaxel in methylcellulose disk): 16/21
- Embryos Evaluated positive/total ([7]; 30 μg paclitaxel in methylcellulose disk): 31/31
- time for which avascular zones did not revascularize after application ([7]; in one study): at least 7 days
- earliest time at which inhibition of angiogenesis occurs after application ([7]; observed over the 48 hour duration): 9 h
- avascular zone diameter ([7]; paclitaxel in methylcellulose disk, 48 hour exposure): 6 mm
- avascular gradient scale (maximal avascular zone) ([7]; within 48 hours, depending on concentration): 3

SMILES: O=S(=O)([O-])[O-].[O]=[V+2] [VOSO4, Vanadyl Sulfate]
- amount of VOSO4 released ([8]; after 2 days, 65 mg pellet of 10% w/w VOSO4:PCL in 10 ml water): 3 mg
- amount of VOSO4 released ([8]; by day 6, 65 mg pellet of 10% w/w VOSO4:PCL in 10 ml water): 5 mg
- amount of VOSO4 released ([8]; in 6 hours, 65 mg pellet of 10% w/w VOSO4:PCL in 10 ml water): 1 mg
